Paper PMC11226696, “Ergothioneine promotes longevity and healthy aging in male mice” (GeroScience, 2024)

Biological target: T1, recombinant human histamine N-methyltransferase (rhHNMT) (Homo sapiens, UniProt P50135)
T1 construct: gene HNMT
Experiment: recombinant enzyme assay, LC-MS/MS of histamine and methylhistamine; Lineweaver-Burk analysis
Assay type: biochemical

T1 sequence (P50135 whole entry): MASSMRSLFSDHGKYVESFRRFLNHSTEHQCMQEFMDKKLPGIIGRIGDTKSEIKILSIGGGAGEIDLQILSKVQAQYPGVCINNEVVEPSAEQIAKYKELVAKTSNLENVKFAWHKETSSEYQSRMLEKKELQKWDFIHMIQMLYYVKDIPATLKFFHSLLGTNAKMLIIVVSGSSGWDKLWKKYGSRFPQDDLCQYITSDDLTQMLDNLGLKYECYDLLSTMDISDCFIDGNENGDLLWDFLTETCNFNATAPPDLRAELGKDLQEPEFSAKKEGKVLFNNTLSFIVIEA

## C[N+](C)(C)[C@@H](Cc1c[nH]c(=S)[nH]1)C(=O)[O-] [ERGO, ergothioneine]
  recombinant enzyme assay, LC-MS/MS of histamine and methylhistamine; Lineweaver-: Lineweaver–Burk analysis revealed that ERGO competitively inhibited rhHNMT against histamine (Fig. 6c)
